Reference: patent US20240043404A1 (AbbVie Inc., priority 2009, published 2024)

System: RS4;11 cells
Test: RS4;11 cell viability assay (CellTiter Glo);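 note: acute lymphoblastic leukemia line RS4,11, EC50 derived from percentage of viable cells after treatment relative to untreated controls, cell killing taken as a measure of Bcl-2 inhibition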
Format: cell-based, human
Details: Homo sapiens, RS4-11, 48 h, 50,000 cells per well, 10% human serum, 48 hours; read-out: RS4; 11 EC50 Values
Method: The acute lymphoblastic leukemia (ALL) cell line RS4;11 was used as the primary human cell line to assess the cellular activity of Bcl-2 selective agents in vitro and their efficacy in vivo.
Cell cytotoxicity EC50 values were assessed using CellTiter Glo (Promega) according to the manufacturer's recommendations. The EC50 values were determined as a percentage of viable cells following treatment compared to the untreated control cells.

Row | Compound | EC50 [nM]
1 | CC1(C)CCC(CN2CCN(c3ccc(C(=O)NS(=O)(=O)c4ccc(N[C@@H]5CCN(C6CCOCC6)C5)c([N+](=O)[O-])c4)c(Oc4cnc5[nH]ccc5c4)c3)CC2)=C(c2ccc(Cl)cc2)C1 [Example 130, 4-(4-{[2-(4-chlorophenyl)-4,4-dimethylcyclohex-1-en-1-yl]methyl}piperazin-1-yl)-N-[(3-nitro-4-{[(3R)-1-tetrahydro-2H-pyran-4-ylpyrrolidin-3-yl]amino}phenyl)sulfonyl]-2-(1H-pyrrolo[2,3-b]pyridin-5-yloxy)benzamide] | 10.6
2 | CC1(C)CCC(CN2CCN(c3ccc(C(=O)NS(=O)(=O)c4ccc(N[C@@H]5CCN(C6CCOC(C)(C)C6)C5)c([N+](=O)[O-])c4)c(Oc4cnc5[nH]ccc5c4)c3)CC2)=C(c2ccc(Cl)cc2)C1 (stereo partly drawn) [Example 131, 4-(4-{[2-(4-chlorophenyl)-4,4-dimethylcyclohex-1-en-1-yl]methyl}piperazin-1-yl)-N-[(4-{[(3R)-1-(2,2-dimethyltetrahydro-2H-pyran-4-yl)pyrrolidin-3-yl]amino}-3-nitrophenyl)sulfonyl]-2-(1H-pyrrolo[2,3-b]pyridin-5-yloxy)benzamide] | 12.7
3 | CC1(C)CCC(CN2CCN(c3ccc(C(=O)NS(=O)(=O)c4ccc(N[C@H]5CCN(C6CCOCC6)C5)c([N+](=O)[O-])c4)c(Oc4cnc5[nH]ccc5c4)c3)CC2)=C(c2ccc(Cl)cc2)C1 [Example 132, 4-(4-{[2-(4-chlorophenyl)-4,4-dimethylcyclohex-1-en-1-yl]methyl}piperazin-1-yl)-N-[(3-nitro-4-{[(3S)-1-tetrahydro-2H-pyran-4-ylpyrrolidin-3-yl]amino}phenyl)sulfonyl]-2-(1H-pyrrolo[2,3-b]pyridin-5-yloxy)benzamide] | 22.1
4 | CC1(C)CCC(CN2CCN(c3ccc(C(=O)NS(=O)(=O)c4ccc(N[C@H]5CCN(C6CCOC(C)(C)C6)C5)c([N+](=O)[O-])c4)c(Oc4cnc5[nH]ccc5c4)c3)CC2)=C(c2ccc(Cl)cc2)C1 (stereo partly drawn) [Example 133, 4-(4-{[2-(4-chlorophenyl)-4,4-dimethylcyclohex-1-en-1-yl]methyl}piperazin-1-yl)-N-[(4-{[(3S)-1-(2,2-dimethyltetrahydro-2H-pyran-4-yl)pyrrolidin-3-yl]amino}-3-nitrophenyl)sulfonyl]-2-(1H-pyrrolo[2,3-b]pyridin-5-yloxy)benzamide] | 31.9

The remaining lines, values ahead:

Row | EC50 [nM] | Compound
5 | 2.51 | CN1CCOC(CNc2ccc(S(=O)(=O)NC(=O)c3ccc(N4CCN(CC5=C(c6ccc(Cl)cc6)CC(C)(C)CC5)CC4)cc3Oc3cnc4[nH]ccc4c3)cc2[N+](=O)[O-])C1 (stereo not shown) [Example 134, 4-(4-{[2-(4-chlorophenyl)-4,4-dimethylcyclohex-1-en-1-yl]methyl}piperazin-1-yl)-N-[(4-{[(4-methylmorpholin-2-yl)methyl]amino}-3-nitrophenyl)sulfonyl]-2-(1H-pyrrolo[2,3-b]pyridin-5-yloxy)benzamide]
6 | 2.37 | COCCN1CCOC(CNc2ccc(S(=O)(=O)NC(=O)c3ccc(N4CCN(CC5=C(c6ccc(Cl)cc6)CC(C)(C)CC5)CC4)cc3Oc3cnc4[nH]ccc4c3)cc2[N+](=O)[O-])C1 (stereo not shown) [Example 135, 4-(4-{[2-(4-chlorophenyl)-4,4-dimethylcyclohex-1-en-1-yl]methyl}piperazin-1-yl)-N-{[4-({[4-(2-methoxyethyl)morpholin-2-yl]methyl}amino)-3-nitrophenyl]sulfonyl}-2-(1H-pyrrolo[2,3-b]pyridin-5-yloxy)benzamide]
7 | 2.96 | CC(=O)N1CCOC(CNc2ccc(S(=O)(=O)NC(=O)c3ccc(N4CCN(CC5=C(c6ccc(Cl)cc6)CC(C)(C)CC5)CC4)cc3Oc3cnc4[nH]ccc4c3)cc2[N+](=O)[O-])C1 (stereo not shown) [Example 136, N-[(4-{[(4-acetylmorpholin-2-yl)methyl]amino}-3-nitrophenyl)sulfonyl]-4-(4-{[2-(4-chlorophenyl)-4,4-dimethylcyclohex-1-en-1-yl]methyl}piperazin-1-yl)-2-(1H-pyrrolo[2,3-b]pyridin-5-yloxy)benzamide]
